ChEMBL document CHEMBL1127439, “Structure-activity relationship studies of central nervous system agents. 13. 4-[3-(Benzotriazol-1-yl)propyl]-1-(2-methoxyphenyl)piperazine, a new putative 5-HT1A receptor antagonist, and its analogs” (J Med Chem, 1994)

Key:
Mus musculus [1] = experiment: Effect on body temperature in mice at intraperitoneal dosage of 4 mg/kg, (compound administered 30 min before the test) after 90 min; assay type: functional
Rattus norvegicus [2] = experiment: Tested for the induction of lower lip retraction (LLR) by the investigated compounds in rat at dosage of 16 mg/kg; assay type: functional
Mus musculus [3] = experiment: Effect on 8-OH-DPAT-induced hypothermia in mice (5 mg/kg) at intraperitoneal dosage of 2 mg/kg of compound after 30 mins; assay type: functional
Mus musculus [4] = experiment: Effect on 8-OH-DPAT-induced hypothermia in mice (5 mg/kg) at intraperitoneal dosage of 4 mg/kg of compound after 60 mins; assay type: functional
[5] = target: Serotonin 2 (5-HT2) receptor (Rattus norvegicus, UniProt P30994+P08909+P14842); experiment: Tested in vitro for receptor binding affinity against 5-hydroxytryptamine 2 receptor using radioligand [3H]ketanserin; assay type: protein assay
Rattus norvegicus [6] = experiment: Tested for the effect on 8-OH-DPAT-induced behavior in reserpine pretreated rat against flat body posture at dosage of 1 mg/kg; assay type: functional
Mus musculus [7] = experiment: Effect on 8-OH-DPAT-induced hypothermia in mice (5 mg/kg) at intraperitoneal dosage of 8 mg/kg of compound after 45 mins; assay type: functional
Mus musculus [8] = experiment: Effect on body temperature in mice at intraperitoneal dosage of 8 mg/kg, (compound administered 30 min before the test) after 60 min; assay type: functional
Mus musculus [9] = experiment: Effect on body temperature in mice at intraperitoneal dosage of 8 mg/kg, (compound administered 30 min before the test) after 30 min; assay type: functional
Mus musculus [10] = experiment: Effect on body temperature in mice at intraperitoneal dosage of 4 mg/kg, (compound administered 30 min before the test) after 75 min; assay type: functional
Mus musculus [11] = experiment: Effect on body temperature in mice at intraperitoneal dosage of 2 mg/kg, (compound administered 30 min before the test) after 45 min; assay type: functional
Rattus norvegicus [12] = experiment: Tested for the effect on 8-OH-DPAT-induced behavior in reserpine pretreated rat against forepaw treading at dosage of 4 mg/kg; assay type: functional
Mus musculus [13] = experiment: Effect on body temperature in mice at intraperitoneal dosage of 2 mg/kg, (compound administered 30 min before the test) after 90 min; assay type: functional
Mus musculus [14] = experiment: Effect on body temperature in mice at intraperitoneal dosage of 2 mg/kg, (compound administered 30 min before the test) after 30 min; assay type: functional
Rattus norvegicus [15] = experiment: Tested for the effect on 8-OH-DPAT-induced behavior in reserpine pretreated rat against forepaw treading at dosage of 8 mg/kg; assay type: functional
Mus musculus [16] = experiment: Effect on body temperature in mice at intraperitoneal dosage of 4 mg/kg, (compound administered 30 min before the test) after 60 min; assay type: functional
Rattus norvegicus [17] = experiment: Tested for the effect on 8-OH-DPAT-induced behavior in reserpine pretreated rat against forepaw treading at dosage of 2 mg/kg; assay type: functional
Mus musculus [18] = experiment: Effect on 8-OH-DPAT-induced hypothermia in mice (5 mg/kg) at intraperitoneal dosage of 8 mg/kg of compound after 60 mins; assay type: functional
Mus musculus [19] = experiment: Effect on body temperature in mice at intraperitoneal dosage of 8 mg/kg, (compound administered 30 min before the test) after 45 min; assay type: functional
[20] = target: T1, 5-hydroxytryptamine receptor 1A (Rattus norvegicus, UniProt P19327); experiment: Tested in vitro for receptor binding affinity against 5-hydroxytryptamine 1A receptor using radioligand [3H]8-OH-DPAT
T1 sequence (P19327 whole entry): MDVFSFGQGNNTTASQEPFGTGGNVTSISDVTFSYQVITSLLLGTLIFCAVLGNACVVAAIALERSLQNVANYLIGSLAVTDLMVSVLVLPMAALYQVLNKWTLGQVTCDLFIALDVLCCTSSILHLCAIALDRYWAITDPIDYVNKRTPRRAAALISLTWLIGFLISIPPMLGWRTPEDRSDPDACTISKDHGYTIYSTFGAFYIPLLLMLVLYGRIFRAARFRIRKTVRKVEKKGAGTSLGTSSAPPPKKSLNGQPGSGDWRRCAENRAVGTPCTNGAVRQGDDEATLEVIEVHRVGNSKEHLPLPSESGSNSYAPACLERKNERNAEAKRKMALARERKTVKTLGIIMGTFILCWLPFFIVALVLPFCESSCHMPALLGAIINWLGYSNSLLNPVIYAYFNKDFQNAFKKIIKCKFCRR

Rattus norvegicus [21] = experiment: Tested for the induction of lower lip retraction (LLR) by the investigated compounds in rat at dosage of 8 mg/kg; assay type: functional
Mus musculus [22] = experiment: Effect on body temperature in mice at intraperitoneal dosage of 4 mg/kg, (compound administered 30 min before the test) after 45 min; assay type: functional
Mus musculus [23] = experiment: Effect on body temperature in mice at intraperitoneal dosage of 2 mg/kg, (compound administered 30 min before the test) after 75 min; assay type: functional
Rattus norvegicus [24] = experiment: Tested for the effect on 8-OH-DPAT-induced behavior in reserpine pretreated rat against forepaw treading at dosage of 16 mg/kg; assay type: functional
Rattus norvegicus [25] = experiment: Tested for the effect on 8-OH-DPAT-induced lower lip retraction (LLR) in rat at dosage of 4 mg/kg; assay type: functional
Mus musculus [26] = experiment: Effect on 8-OH-DPAT-induced hypothermia in mice (5 mg/kg) at intraperitoneal dosage of 4 mg/kg of compound after 30 mins; assay type: functional
Mus musculus [27] = experiment: Effect on 8-OH-DPAT-induced hypothermia in mice (5 mg/kg) at intraperitoneal dosage of 4 mg/kg of compound after 15 mins; assay type: functional
Rattus norvegicus [28] = experiment: Tested for the effect on 8-OH-DPAT-induced behavior in reserpine pretreated rat against flat body posture at dosage of 2 mg/kg; assay type: functional
Rattus norvegicus [29] = species on record: Rattus norvegicus; experiment: Selectivity is the ratio between Ki values of 5-HT2 and 5-HT1A
Rattus norvegicus [30] = experiment: Tested for the effect on 8-OH-DPAT-induced behavior in reserpine pretreated rat against flat body posture at dosage of 4 mg/kg; assay type: functional
Mus musculus [31] = experiment: Effect on 8-OH-DPAT-induced hypothermia in mice (5 mg/kg) at intraperitoneal dosage of 2 mg/kg of compound after 45 mins; assay type: functional
Mus musculus [32] = experiment: Effect on body temperature in mice at intraperitoneal dosage of 2 mg/kg, (compound administered 30 min before the test) after 60 min; assay type: functional
Rattus norvegicus [33] = experiment: Tested for the effect on 8-OH-DPAT-induced behavior in reserpine pretreated rat against flat body posture at dosage of 8 mg/kg; assay type: functional
Rattus norvegicus [34] = experiment: Tested for the effect on 8-OH-DPAT-induced behavior in reserpine pretreated rat against flat body posture at dosage of 16 mg/kg; assay type: functional
Rattus norvegicus [35] = experiment: Tested for the effect on 8-OH-DPAT-induced lower lip retraction (LLR) in rat at dosage of 8 mg/kg; assay type: functional
Rattus norvegicus [36] = experiment: Tested for the effect on 8-OH-DPAT-induced behavior in reserpine pretreated rat against forepaw treading at dosage of 1 mg/kg; assay type: functional
Mus musculus [37] = experiment: Effect on 8-OH-DPAT-induced hypothermia in mice (5 mg/kg) at intraperitoneal dosage of 4 mg/kg of compound after 45 mins; assay type: functional
Rattus norvegicus [38] = experiment: Tested for the induction of lower lip retraction (LLR) by the investigated compounds in rat at dosage of 4 mg/kg; assay type: functional
Mus musculus [39] = experiment: Effect on 8-OH-DPAT-induced hypothermia in mice (5 mg/kg) at intraperitoneal dosage of 2 mg/kg of compound after 15 mins; assay type: functional
Mus musculus [40] = experiment: Effect on 8-OH-DPAT-induced hypothermia in mice (5 mg/kg) at intraperitoneal dosage of 8 mg/kg of compound after 15 mins; assay type: functional
Mus musculus [41] = experiment: Effect on body temperature in mice at intraperitoneal dosage of 8 mg/kg, (compound administered 30 min before the test) after 90 min; assay type: functional
Rattus norvegicus [42] = experiment: Tested for the effect on 8-OH-DPAT-induced lower lip retraction (LLR) in rat at dosage of 2 mg/kg; assay type: functional
Mus musculus [43] = experiment: Effect on body temperature in mice at intraperitoneal dosage of 8 mg/kg, (compound administered 30 min before the test) after 75 min; assay type: functional
Mus musculus [44] = experiment: Effect on 8-OH-DPAT-induced hypothermia in mice (5 mg/kg) at intraperitoneal dosage of 8 mg/kg of compound after 30 mins; assay type: functional
Mus musculus [45] = experiment: Effect on body temperature in mice at intraperitoneal dosage of 4 mg/kg, (compound administered 30 min before the test) after 30 min; assay type: functional
Mus musculus [46] = experiment: Effect on 8-OH-DPAT-induced hypothermia in mice (5 mg/kg) at intraperitoneal dosage of 2 mg/kg of compound after 60 mins; assay type: functional
Rattus norvegicus [47] = experiment: Tested for the induction of lower lip retraction (LLR) by the investigated compounds in rat at dosage of 2 mg/kg; assay type: functional
Rattus norvegicus [48] = experiment: Tested for the effect on 8-OH-DPAT-induced lower lip retraction (LLR) in rat at dosage of 16 mg/kg; assay type: functional

- Ki [5]: 214 nM
- Ki [20]: 4 nM
- Selectivity (Rattus norvegicus [29]): 54
SMILES: COc1ccccc1N1CCN(CCCCn2nc3ccccc3n2)CC1
- Delta t (Mus musculus [1]): 0.8 °C
- LLR score (Rattus norvegicus [2]): 1.9
- Delta t (Mus musculus [3]): 1.9 °C
- Delta t (Mus musculus [4]): 1.3 °C
- Behavioral score (Rattus norvegicus [6]): 14.2
- Delta t (Mus musculus [7]): 1.6 °C
- Delta t (Mus musculus [8]): 2 °C
- Delta t (Mus musculus [9]): 2.8 °C
- Delta t (Mus musculus [10]): 0.8 °C
- Delta t (Mus musculus [11]): 0 °C
- Behavioral score (Rattus norvegicus [12]): 5.1
- Delta t (Mus musculus [13]): 0.1 °C
- Delta t (Mus musculus [14]): 0.1 °C
- Behavioral score (Rattus norvegicus [15]): 2.4
- Delta t (Mus musculus [16]): 0.9 °C
- Behavioral score (Rattus norvegicus [17]): 5.6
- Delta t (Mus musculus [18]): 1.1 °C
- Delta t (Mus musculus [19]): 2.5 °C
- LLR score (Rattus norvegicus [21]): 1.5
- Delta t (Mus musculus [22]): 0.8 °C
- Delta t (Mus musculus [23]): 0.3 °C
- Behavioral score (Rattus norvegicus [24]): 1.3
- LLR score (Rattus norvegicus [25]): 2.3
- Delta t (Mus musculus [26]): 2.3 °C
- Delta t (Mus musculus [27]): 2.7 °C
- Behavioral score (Rattus norvegicus [28]): 9.3
- Behavioral score (Rattus norvegicus [30]): 11.7
- Delta t (Mus musculus [31]): 1.2 °C
- Delta t (Mus musculus [32]): 0.2 °C
- Behavioral score (Rattus norvegicus [33]): 5.2
- Behavioral score (Rattus norvegicus [34]): 2.6
- LLR score (Rattus norvegicus [35]): 2.4
- Behavioral score (Rattus norvegicus [36]): 13.6
- Delta t (Mus musculus [37]): 1.8 °C
- LLR score (Rattus norvegicus [38]): 1
- Delta t (Mus musculus [39]): 2.1 °C
- Delta t (Mus musculus [40]): 2.4 °C
- Delta t (Mus musculus [41]): 1.4 °C
- LLR score (Rattus norvegicus [42]): 2.5
- Delta t (Mus musculus [43]): 2 °C
- Delta t (Mus musculus [44]): 2.2 °C
- Delta t (Mus musculus [45]): 0.9 °C
- Delta t (Mus musculus [46]): 0.9 °C
- LLR score (Rattus norvegicus [47]): 0.3
- LLR score (Rattus norvegicus [48]): 2.4
